# Data reported in PubChem BioAssay (NCI).
#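 Here, GI50 denotes the concentration required for 50% inhibition of growth. TGI: total growth inhibition.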
# How the values were obtained:
# Assay in all cases: growth of human tumour cells (NCI), 384-well format
# [1] = system: SNB-75 CNS
# [2] = system: BT-549 breast
# [3] = system: HCT-15 colon
# [4] = system: NCI/ADR-RES ovarian
# [5] = system: SK-MEL-28 melanoma
# [6] = system: A549 NSCLC
# [7] = system: NCI-H460 NSCLC
# [8] = system: UACC-257 melanoma
# [9] = system: K-562 leukemia
# [10] = system: MDA-MB-231 breast
# [11] = system: OVCAR-4 ovarian
# [12] = system: A498 renal
# [13] = system: KM12 colon
# [14] = system: NCI-H322M lung
# [15] = system: HOP-62 NSCLC
# [16] = system: T-47D breast
# [17] = system: CAKI-1 renal
# [18] = system: PC-3 prostate
# [19] = system: SK-OV-3 ovarian
# [20] = system: M14 melanoma
# [21] = system: SN12C renal
# [22] = system: RPMI-8226 leukemia
# [23] = system: OVCAR-3 ovarian
# [24] = system: TK-10 renal
# [25] = system: 786-0 renal
# [26] = system: LOX IMVI melanoma
# [27] = system: U251 glioblastoma
# [28] = system: NCI-H522 lung
# [29] = system: ACHN renal
# [30] = system: HT29 colon
# [31] = system: IGROV1 ovarian
# [32] = system: SK-MEL-2 melanoma
# [33] = system: UACC-62 melanoma
# [34] = system: MDA-MB-468 breast
# [35] = system: OVCAR-5 ovarian
# [36] = system: CCRF-CEM leukemia
# [37] = system: NCI-H23 lung
# [38] = system: MDA-MB-435 melanoma
# [39] = system: SNB-19 CNS
# [40] = system: SF-539 CNS
# [41] = system: SK-MEL-5 melanoma
# [42] = system: RXF 393 renal
# [43] = system: NCI-H226 lung
# [44] = system: OVCAR-8 ovarian
# [45] = system: HL-60(TB) leukemia
# [46] = system: MCF7 breast
# [47] = system: EKVX NSCLC
# [48] = system: SF-295 CNS
# [49] = system: SF-268 CNS
# [50] = system: MALME-3M melanoma
# [51] = system: HCC-2998 colon
# [52] = system: COLO 205 colon
# [53] = system: HCT-116 colon
# [54] = system: HS 578T breast
# [55] = system: SW-620 colon
# [56] = system: SR leukemia
# [57] = system: DU-145 prostate
# [58] = system: MOLT-4 leukemia
structure (smiles),measurement,setting,value
Cc1[nH]ncc1-c1cc2nc(C3CC4CCN3CC4)[nH]c(=O)c2s1 (stereo not given),GI50,[1],2.06 µM
same,TGI,[1],7.46 µM
same,GI50,[2],1.85 µM
same,TGI,[2],6.54 µM
same,GI50,[3],2.74 µM
same,TGI,[3],> 100 µM
same,GI50,[4],16.2 µM
same,TGI,[4],65.8 µM
same,GI50,[5],6.67 µM
same,TGI,[5],23.2 µM
same,GI50,[6],2.86 µM
same,TGI,[6],> 100 µM
same,GI50,[7],1.19 µM
same,TGI,[7],5.55 µM
same,GI50,[8],15.2 µM
same,TGI,[8],43.8 µM
same,GI50,[9],5.24 µM
same,TGI,[9],> 100 µM
same,GI50,[10],7.14 µM
same,TGI,[10],> 100 µM
same,GI50,[11],21.4 µM
same,TGI,[11],74.9 µM
same,GI50,[12],0.0828 µM
same,TGI,[12],70.7 µM
same,GI50,[13],3.22 µM
same,TGI,[13],25.7 µM
same,GI50,[14],6.94 µM
same,TGI,[14],34.3 µM
same,GI50,[15],2.31 µM
same,TGI,[15],16.1 µM
same,GI50,[16],24.9 µM
same,TGI,[16],> 100 µM
same,GI50,[17],1.56 µM
same,TGI,[17],> 100 µM
same,GI50,[18],8.96 µM
same,TGI,[18],> 100 µM
same,GI50,[19],17.8 µM
same,TGI,[19],> 100 µM
same,GI50,[20],5.7 µM
same,TGI,[20],19.4 µM
same,GI50,[21],1.78 µM
same,TGI,[21],17.9 µM
same,GI50,[22],10.3 µM
same,TGI,[22],22 µM
same,GI50,[23],2.93 µM
same,TGI,[23],18.3 µM
same,GI50,[24],9.31 µM
same,TGI,[24],> 79.3 µM
same,GI50,[25],2.75 µM
same,TGI,[25],55.1 µM
same,GI50,[26],0.888 µM
same,TGI,[26],14.6 µM
same,GI50,[27],1.38 µM
same,TGI,[27],74.2 µM
same,GI50,[28],0.381 µM
same,TGI,[28],7.5 µM
same,GI50,[29],1.96 µM
same,TGI,[29],> 100 µM
same,GI50,[30],14.4 µM
same,TGI,[30],> 100 µM
same,GI50,[31],3.76 µM
same,TGI,[31],> 51.1 µM
same,GI50,[32],6.55 µM
same,TGI,[32],18.4 µM
same,GI50,[33],2.88 µM
same,TGI,[33],15.5 µM
same,GI50,[34],1.17 µM
same,TGI,[34],20.9 µM
same,GI50,[35],4.24 µM
same,TGI,[35],> 100 µM
same,GI50,[36],0.138 µM
same,TGI,[36],0.905 µM
same,GI50,[37],1.36 µM
same,TGI,[37],6.79 µM
same,GI50,[38],9.26 µM
same,TGI,[38],28 µM
same,GI50,[39],9.66 µM
same,TGI,[39],> 100 µM
same,GI50,[40],1.31 µM
same,TGI,[40],7.72 µM
same,GI50,[41],2.18 µM
same,TGI,[41],7.13 µM
same,GI50,[42],2.27 µM
same,TGI,[42],7.19 µM
same,GI50,[43],2.53 µM
same,TGI,[43],15.9 µM
same,GI50,[44],8.87 µM
same,TGI,[44],> 100 µM
same,GI50,[45],0.562 µM
same,TGI,[45],1.8 µM
same,GI50,[46],3.55 µM
same,TGI,[46],> 100 µM
same,GI50,[47],5.93 µM
same,TGI,[47],42.9 µM
same,GI50,[48],1.19 µM
same,TGI,[48],49.4 µM
same,GI50,[49],1.42 µM
same,TGI,[49],4.23 µM
same,GI50,[50],11.1 µM
same,TGI,[50],29.7 µM
same,GI50,[51],3.48 µM
same,TGI,[51],24.2 µM
same,GI50,[52],0.0396 µM
same,TGI,[52],0.198 µM
same,GI50,[53],2.16 µM
same,TGI,[53],> 100 µM
same,GI50,[54],1.48 µM
same,TGI,[54],3.32 µM
same,GI50,[55],0.333 µM
same,GI50,[56],0.178 µM
same,TGI,[56],0.366 µM
same,GI50,[57],0.876 µM
same,TGI,[57],> 100 µM
same,GI50,[58],1.14 µM
same,TGI,[58],11.3 µM
